Values of other authors in patent US20030040489A1, “Process for producing l-arabinose, l-arabinose-containing enzymatically processed products, diet foods, diabetic diet foods and fruit or vegetable juices and process for producting the same” (priority 1999, published 2003).

Tested on: disaccharide-decomposing enzymes (maltase, sucrase, etc.)
Conditions: enzymes of duodenal and small intestinal mucosae

mode of inhibition of disaccharide-decomposing enzymes: uncompetitively inhibits
SMILES: O=C[C@H](O)[C@@H](O)[C@@H](O)CO [L-arabinose]
